This is an account of results in patent US20060167098A1, “Method for the treatment of diseases linked to an accumulation of triglycerides and cholesterol” (Institut National De La Sante ET De LA Recherche Medicale …, priority 2003, published 2006).

The structures appear in SMILES notation.

Assay type in all cases: in vivo
Test [1] in a line: Plasma glucose and insulin in obese ob/ob mice (10 to 12-weeks old), 6 weeks. The method, then:
Plasma glucose was measured on an automatic analyser (Synchron LX20 from Beckman Coulter) with a commercial kit (kit n°472500 from Beckman).
Plasma insulin, adiponectin and leptin were measured by radioimmunoassay (RIA). Insulin was measured with the Insulin-CT kit from Cis Bio International (Gif-sur-Yvette, France), whereas plasma leptin and adiponectin were assessed with kits from Linco Research Inc. (St Charles, Mo.). Leptin was not measured in ob/ob mice since these animals are genetically leptin-deficient (Friedman J. M., Halaas J. L., 1998, Nature 395: 763-770). Results regarding insulin were expressed as recommended by kit manufacturer.
In obese ob/ob mice (10 to 12-weeks old) treated with 100 mg/kg/d of β-aminoisobutyric acid for 6 weeks and fasted for the last 48 hours, there was a trend toward lower plasma levels of glucose and insulin. Indeed, plasma glucose was 11.1±1.4 and 9.0±0.9 mmol/L, respectively in control ob/ob mice (n=6) and mice treated with β-aminoisobutyric acid (n=8). Plasma insulin was 37±19 and 24±6 μU/ml, respectively in control mice (n=4) and mice treated with β-aminoisobutyric acid (n=5). […] Indeed, insulin was 83±13 and 64±7 μU/ml, respectively in control mice (n=5) and mice treated with β-aminoisobutyric acid (n=5).

Test [2] is described as follows: Gain of body fat mass by DEXA in Swiss mice, standard diet, not fasted. The settings on record: 100 mg/kg/day; for gain of body fat: standard diet, not fasted. An excerpt:
Six to 8 weeks old male (Crl:CD-1(ICR)BR) Swiss mice, and six to ten weeks old male RjOrl Swiss mice (i.e. lean mice) weighing 28 and 32 grams were purchased from Dépré (Saint Doulchard, France). Ten to 12 weeks old ob/ob male (C57BL/6-ob) mice (i.e. obese mice), weighing 40 to 44 grams were purchased from Janvier (Le-Genest-St-Isle, France). In one experiment, younger ob/ob mice (5-6 weeks old) weighing 25-26 grams were also studied. In genetically obese ob/ob mice, a mutation on the gene of leptin prevents the normal production of this hormone, thus increasing appetite and decreasing energy consumption (Friedman J. M., Halaas J. L., 1998, Nature 395 : 763-770). […] The animals were acclimatized for one to two weeks before the start of experiments.
D,L-β-Aminoisobutyric acid (BAIBA) was purchased from Sigma-Aldrich. BAIBA has been administered in drinking water at the dose of 100 mg/kg/day or 500 mg/kg/day for 6 weeks, 2 months or 4 months according to the experiments.
The in vivo determination of body fat mass in anesthetized mice has been performed by “DEXA” (Dual Energy X-ray Absorptiometry) (Pietriobelli A., Formica C., Wang Z., Heymsfield S. B., 1996, Am. J. Physiol. 271 (Endocrinol. Metab. 34): E941-E951)). […] It is noteworthy that DEXA also gives for each investigated animal its lean mass that is the total amount of water and proteins (in grams) in the body (excluding the head). Therefore, for a given animal, DEXA allows the determination of the percentage of body fat which is its body fat mass divided by the sum of its body lean and fat masses (fat mass/(lean mass+fat mass)). The “DEXA” apparatus was a Piximus® from Lunar Corporation (Madison, Wis.). Mice were anesthetized thanks to a mixture of xylazine and ketamine.
Procedure 1: the animals were not fasted before DEXA investigations. The first DEXA measurement was performed one day before the beginning of the investigation (T0). Afterwards, DEXA measurements have been respectively performed two weeks (T2) and six weeks (T6) after the beginning of the treatment. With this procedure, it has been possible to determine in each group of animals the evolution of several parameters (e.g. fat mass, body weight) between respectively T0 and T2, and T2 and T6. Comparisons of these evolutions were thus performed for the T0-T2, T2-T6 and T0-T6 periods.
In a second series of investigations, we sought to determine as to whether of 100 mg/kg/day of β-aminoisobutyric acid (BAIBA) decreases body fat in Swiss mice not submitted to fast before DEXA measurements. Mice were 6 to 8 weeks old at the beginning of the experiment. In this experiment, DEXA was performed one day before the beginning of the treatment (T0) and then two and six weeks after the initiation of the experience (T2 and T6, respectively). This allowed us to determine for each animal the variation of body fat mass for the different periods of the treatment (T0-T2, T2-T6 and T0-T6). […] This effect of BAIBA is submitted in FIG. 2.

Test [3] is described as follows: Plasma lipids in very young ob/ob mice. As to conditions: very young ob/ob mice (6 weeks at the beginning). The method, then:
Plasma lipids (triglycerides, total cholesterol, phospholipids) were measured on an automatic analyser (Hitachi 717®). The commercial kits used to assess triglycerides, total cholesterol and phospholipids on this analyser were all from bioMérieux (references 61238, 61219 and 61491, respectively). Plasma non esterified fatty acids (NEFA) were assessed by using a commercial kit (Wako, reference 994-75409). Hepatic and plasma lipids were performed at the end of six weeks of treatment in animals that have been fasted for 48 hours. Triglycerides and HDL-cholesterol were also assessed after 2 months (in the fed state) or after 4 months of treatment (after an overnight fast).
Accordingly, plasma triglycerides were 1.35 and 1.39 mmol/L in ob/ob mice in the present study, whereas much higher levels (1.96 mmol/L) were found in Swiss mice fed with the western diet (see above). Thus, it remains possible that the beneficial effects of BAIBA on plasma lipids are more pronounced when lipid levels are above a certain threshold. In keeping with this notion, BAIBA reduced by 22% plasma triglycerides in mice fed with the western diet (FIG. 6).

The mark [4] stands for this setting: 100 mg/kg/d 6 weeks, ob/ob 10 to 12-weeks old, fasted 48 hours.
Where [5] appears, read: obese mice, standard diet, 6 weeks.

In test [1] (setting [4]), `CC(CN)C(=O)O` (racemic) [BAIBA, D,L-β-Aminoisobutyric acid] registered a plasma glucose of 9.0 ± 0.9 mmol/L and a plasma insulin of 24±6 μU/ml. Besides, the plasma insulin in test [1] (100 mg/kg/d 6 weeks, ob/ob 10 to 12-weeks old, fed state) is listed as 64±7 μU/ml. In addition, in test [1] (setting [5]), the “decrease of the glucose plasma level” value is “around 20%” and the “decrease of the insulin plasma level” value was “around 35%”. The “gain of body fat” value in test [2] (T0-T2 period) is given as 0.56±0.12 grams. Further, in test [2] (T0-T6), the “gain of body weight” value is listed as 9.02±0.42 grams. Further, the “reduction of the gain of fat mass” value in test [2] (T0-T6, standard diet, vs control) was 55%. Moreover, the “reduction of the gain of body weight” value in test [2] (T0-T6, vs control, p<0.01) was 12%. For the same compound, in test [2] (T0-T6 period), the “gain of body fat” value stood at 0.84±0.18 grams. For the same compound, the “gain of body fat” value in test [2] (T2-T6 period) turned out to be 0.28±0.12 grams. For the same compound, in test [3], the plasma phospholipids worked out at 4.35 ± 0.11 mmol/L, the plasma total cholesterol amounted to 4.96 ± 0.15 mmol/L, the plasma triglycerides was determined as 1.07 ± 0.03 mmol/L and the “reduction of plasma phospholipids” value amounted to 4%. Also, the “reduction of total cholesterol” value in test [3] came out at 5%.
